As a reminder, the IC50 is the concentration needed to halve the response being measured.

Assay type in all cases: biochemical
Assay [1] addresses T1, recombinant human MAO-B (monoamine oxidase-B) (Homo sapiens, UniProt P27338).
T1 construct: purchased Sigma-Aldrich
T1 sequence (P27338 1-520): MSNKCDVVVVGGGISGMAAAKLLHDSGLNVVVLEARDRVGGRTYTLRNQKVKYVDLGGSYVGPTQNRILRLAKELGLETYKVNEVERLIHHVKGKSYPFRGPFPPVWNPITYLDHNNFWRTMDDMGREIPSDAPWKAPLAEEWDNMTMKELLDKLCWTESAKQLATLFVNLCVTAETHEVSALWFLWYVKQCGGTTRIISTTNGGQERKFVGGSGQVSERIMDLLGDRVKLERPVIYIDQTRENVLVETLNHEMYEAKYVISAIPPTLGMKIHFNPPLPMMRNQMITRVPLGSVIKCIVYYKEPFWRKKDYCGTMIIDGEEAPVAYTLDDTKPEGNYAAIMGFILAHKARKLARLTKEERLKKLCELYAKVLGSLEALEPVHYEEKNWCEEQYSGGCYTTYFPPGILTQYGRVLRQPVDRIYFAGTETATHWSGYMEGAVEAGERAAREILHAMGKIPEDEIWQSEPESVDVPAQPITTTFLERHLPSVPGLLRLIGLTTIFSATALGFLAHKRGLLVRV
Kind of assay: Activity on recombinant human MAO-B, Amplex Red method, 1 mM benzylamine substrate. To be noted: read-out: Inhibitory Activity (IC50, nM) MAO-B. The procedure, abridged:
(§1)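 Amplex Red/HRP coupled read-out of H2O2 with 0.5 mM tyramine for MAO-A or 1 mM benzylamine for MAO-B, following a 30-min compound–enzyme preincubation at 37° C. IC50 from percent inhibition of signal rate relative to uninhibited control.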

Assay [2] addresses T2, recombinant human DAO (diamine oxidase) (Homo sapiens, UniProt P19801).
T2 construct: purchased R&D systems
T2 sequence (P19801 20-751): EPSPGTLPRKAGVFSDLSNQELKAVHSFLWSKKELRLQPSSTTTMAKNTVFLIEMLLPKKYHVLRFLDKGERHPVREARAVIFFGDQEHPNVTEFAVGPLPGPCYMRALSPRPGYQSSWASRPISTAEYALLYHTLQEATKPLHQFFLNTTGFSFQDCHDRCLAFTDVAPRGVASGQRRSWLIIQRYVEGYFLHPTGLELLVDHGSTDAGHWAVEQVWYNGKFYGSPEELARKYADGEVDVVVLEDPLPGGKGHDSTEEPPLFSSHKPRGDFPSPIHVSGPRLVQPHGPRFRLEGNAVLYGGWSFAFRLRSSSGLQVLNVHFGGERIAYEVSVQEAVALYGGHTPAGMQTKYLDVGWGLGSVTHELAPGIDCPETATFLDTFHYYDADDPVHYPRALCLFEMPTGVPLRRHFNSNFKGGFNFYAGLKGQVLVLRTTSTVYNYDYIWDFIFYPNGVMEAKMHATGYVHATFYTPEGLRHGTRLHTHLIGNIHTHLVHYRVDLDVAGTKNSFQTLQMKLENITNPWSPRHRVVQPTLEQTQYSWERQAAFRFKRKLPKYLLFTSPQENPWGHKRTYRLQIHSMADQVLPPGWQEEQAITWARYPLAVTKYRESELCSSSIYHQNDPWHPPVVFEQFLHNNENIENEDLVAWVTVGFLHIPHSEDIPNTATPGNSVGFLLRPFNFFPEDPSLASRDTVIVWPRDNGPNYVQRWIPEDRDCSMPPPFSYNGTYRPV
In words: Activity on recombinant human DAO, Amplex Red method, 1 mM putrescine substrate. To be noted: recombinant human DAO, read-out: Inhibitory Activity (IC50, nM) DAO. The gist of the method:
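Inhibition of recombinant human DAO (diamine oxidase, R&D systems) was assessed with the Amplex Red Hydrogen Peroxide Assay Kit. Hydrogen peroxide produced from 1 mM putrescine was detected through an HRP-coupled reaction that converts Amplex Red into fluorescent resorufin, read at 544 nm excitation and 590 nm emission. IC50 values came from four-parameter logistic fits in GraphPad Prism.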

A further assay addresses T3, recombinant human VAP-1 (Homo sapiens, UniProt Q16853).
T3 construct: purchased R&D systems
T3 sequence (Q16853 1-763): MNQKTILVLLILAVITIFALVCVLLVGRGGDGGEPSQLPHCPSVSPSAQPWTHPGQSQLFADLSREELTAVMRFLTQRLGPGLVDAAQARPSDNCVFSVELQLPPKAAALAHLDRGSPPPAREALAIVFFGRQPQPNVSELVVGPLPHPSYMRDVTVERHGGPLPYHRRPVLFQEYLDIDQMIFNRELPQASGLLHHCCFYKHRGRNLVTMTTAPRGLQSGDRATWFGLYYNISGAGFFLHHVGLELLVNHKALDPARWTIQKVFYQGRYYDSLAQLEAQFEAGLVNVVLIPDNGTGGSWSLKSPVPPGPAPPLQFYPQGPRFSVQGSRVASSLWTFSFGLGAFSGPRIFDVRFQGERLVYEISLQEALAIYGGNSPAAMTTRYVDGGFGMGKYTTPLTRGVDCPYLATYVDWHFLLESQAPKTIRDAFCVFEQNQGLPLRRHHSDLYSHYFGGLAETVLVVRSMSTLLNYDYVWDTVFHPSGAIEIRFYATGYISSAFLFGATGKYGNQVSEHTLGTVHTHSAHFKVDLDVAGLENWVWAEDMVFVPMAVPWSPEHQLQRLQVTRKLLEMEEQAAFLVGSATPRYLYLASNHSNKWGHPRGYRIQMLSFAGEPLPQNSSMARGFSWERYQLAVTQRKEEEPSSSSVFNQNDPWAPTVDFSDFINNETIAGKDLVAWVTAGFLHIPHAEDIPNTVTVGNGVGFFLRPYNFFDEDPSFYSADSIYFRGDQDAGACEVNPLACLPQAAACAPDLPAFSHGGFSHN
Kind of assay: Activity on recombinant human VAP-1, Amplex Red HRP-coupled hydrogen peroxide assay, benzylamine substrate. To be noted: recombinant human VAP-1, benzylamine substrate, read-out: Inhibitory Activity (IC50, nM) human VAP-1. The procedure, abridged: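 Dose-response IC50 determined from reduction in resorufin signal rate (544/590 nm, 1-2 h), with 30 min compound preincubation at 37 °C and 1 mM benzylamine as substrate.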

Assay [3] has as its target T4, recombinant human MAO-A (monoamine oxidase-A) (Homo sapiens, UniProt P21397).
T4 construct: purchased Sigma-Aldrich
T4 sequence (P21397 1-527): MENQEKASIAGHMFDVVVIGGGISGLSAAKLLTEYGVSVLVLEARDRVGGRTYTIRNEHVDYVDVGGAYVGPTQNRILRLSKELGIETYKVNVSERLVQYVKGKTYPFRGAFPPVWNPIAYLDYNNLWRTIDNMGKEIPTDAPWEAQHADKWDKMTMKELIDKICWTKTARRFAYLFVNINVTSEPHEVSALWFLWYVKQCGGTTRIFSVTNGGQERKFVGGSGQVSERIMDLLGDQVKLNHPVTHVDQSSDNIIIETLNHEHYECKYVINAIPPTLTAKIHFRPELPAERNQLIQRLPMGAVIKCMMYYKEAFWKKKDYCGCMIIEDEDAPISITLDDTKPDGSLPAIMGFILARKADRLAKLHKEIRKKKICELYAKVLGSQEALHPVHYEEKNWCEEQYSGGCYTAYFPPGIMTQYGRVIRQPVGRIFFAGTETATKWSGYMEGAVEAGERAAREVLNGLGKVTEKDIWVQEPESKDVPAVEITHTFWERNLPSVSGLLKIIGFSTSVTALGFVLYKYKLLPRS
Kind of assay: Activity on recombinant human MAO-A, Amplex Red method, 0.5 mM tyramine substrate. To be noted: read-out: Inhibitory Activity (IC50, nM) MAO-A. The gist of the method:
as §1

Setting [4] is: 1 mM putrescine, * = between 10 and 100 nM, ** = between 300 and 1000 nM.

Structures can show the parent of a compound that is named as a salt. Where two headings read alike, the source gives them in different places.

For `Cc1cc(-c2ccc(-c3ncon3)cc2)cnc1-n1cnn(C/C(=C/F)CN)c1=O` [Example 139, 2-[(2E)-2-(aminomethyl)-3-fluoroprop-2-en-1-yl]-4-{3-methyl-5-[4-(1,2,4-oxadiazol-3-yl)phenyl]pyridin-2-yl}-2,4-dihydro-3H-1,2,4-triazol-3-one], the 50% inhibitory concentration (IC50) in assay [1] (1 mM benzylamine) is 394 nM; in assay [2] (setting [4]), 370 nM; on recombinant human VAP-1 (30 min preincubation at 37° C.) it was 0.53 nM; in assay [3] (0.5 mM tyramine), more than 100000 nM.
In the same order, the values of `CC(=O)Nc1cc(-c2cnc(-n3cnn(C/C(=C/F)CN)c3=O)c(C)c2)ccn1` [Example 147, (E)-N-(6-(1-(2-(aminomethyl)-3-fluoroallyl)-5-oxo-1,5-dihydro-4H-1,2,4-triazol-4-yl)-5-methyl-[3,4′-bipyridin]-2′-yl)acetamide hydrochloride] are more than 10000 nM, 450 nM, 0.55 nM and more than 10000 nM.
On the same counts, the results for `Cc1ccc(-c2cccc(-n3cnn(C/C(=C/F)CN)c3=O)c2)c2cccnc12` [Example 105, 2-[(2E)-2-(aminomethyl)-3-fluoroprop-2-en-1-yl]-4-[3-(8-methylquinolin-5-yl)phenyl]-2,4-dihydro-3H-1,2,4-triazol-3-one hydrochloride] are 9640 nM, 180 nM, 0.83 nM and 65200 nM.
Regarding `CN1CCOc2cc(-c3cccc(-n4cnn(C/C(=C/F)CN)c4=O)n3)ccc21` [Example 202, 2-[(2E)-2-(aminomethyl)-3-fluoroprop-2-en-1-yl]-4-[6-(4-methyl-3,4-dihydro-2H-1,4-benzoxazin-7-yl)pyridin-2-yl]-2,4-dihydro-3H-1,2,4-triazol-3-one hydrochloride], the IC50 is 1300 nM in assay [1] (1 mM benzylamine substrate), 240 nM in assay [2] (1 mM putrescine substrate), 1 nM on recombinant human VAP-1 and more than 100000 nM in assay [3] (0.5 mM tyramine substrate).
As to `Cc1cc(-c2ccc(C(F)(F)F)nc2)cnc1-n1cnn(C/C(=C/F)CN)c1=O` [Example 148, 2-[(2E)-2-(aminomethyl)-3-fluoroprop-2-en-1-yl]-4-[5-methyl-6′-(trifluoromethyl)-3,3′-bipyridin-6-yl]-2,4-dihydro-3H-1,2,4-triazol-3-one hydrochloride], the IC50 in assay [1] (1 mM benzylamine) was more than 10000 nM; in assay [2] (setting [4]), 35 nM; on recombinant human VAP-1 (30 min preincubation at 37° C.) it was 0.4 nM; in assay [3] (0.5 mM tyramine), 160000 nM.
Consider `CC(=O)c1ccc(-c2cccc(-n3cnn(C/C(=C/F)CN)c3=O)c2)s1` [Example 49, 4-[3-(5-acetylthiophen-2-yl)phenyl]-2-[(2E)-2-(aminomethyl)-3-fluoroprop-2-en-1-yl]-2,4-dihydro-3H-1,2,4-triazol-3-one hydrochloride], for which the IC50 in assay [1] (1 mM benzylamine) is 800 nM; in assay [2] (setting [4]), 2.1 nM; on recombinant human VAP-1 (30 min preincubation at 37° C.), 0.2 nM; in assay [3] (0.5 mM tyramine), more than 100000 nM.
As for `Cc1ccc(-c2ccc(C(=O)N3CCOCC3)cc2)nc1-n1cnn(C/C(=C/F)CN)c1=O` [Example 211, 2-[(2E)-2-(aminomethyl)-3-fluoroprop-2-en-1-yl]-4-{3-methyl-6-[4-(morpholin-4-ylcarbonyl)phenyl]pyridin-2-yl}-2,4-dihydro-3H-1,2,4-triazol-3-one hydrochloride], the IC50 in assay [1] (1 mM benzylamine substrate) was more than 10000 nM; in assay [2] (1 mM putrescine substrate), 3500 nM; at recombinant human VAP-1, 49 nM; in assay [3] (0.5 mM tyramine substrate) it was more than 100000 nM.
For the compound `Cc1cc(-c2ccc(N3CCNCC3)cc2)cnc1-n1cnn(C/C(=C/F)CN)c1=O` [Example 145, 2-[(2E)-2-(aminomethyl)-3-fluoroprop-2-en-1-yl]-4-{3-methyl-5-[4-(piperazin-1-yl)phenyl]pyridin-2-yl}-2,4-dihydro-3H-1,2,4-triazol-3-one hydrochloride], the IC50 was more than 10000 nM in assay [1] (1 mM benzylamine), 13000 nM in assay [2] (setting [4]), 0.9 nM at recombinant human VAP-1 (30 min preincubation at 37° C.) and more than 100000 nM in assay [3] (0.5 mM tyramine).
Take `NC/C(=C\F)Cn1ncn(-c2ccc(Br)cn2)c1=O` [Example 30, 2-[(2E)-2-(aminomethyl)-3-fluoroprop-2-en-1-yl]-4-(5-bromopyridin-2-yl)-2,4-dihydro-3H-1,2,4-triazol-3-one hydrochloride]: the IC50 in assay [1] (1 mM benzylamine) was 1700 nM; in assay [2] (setting [4]), 13 nM; on recombinant human VAP-1 (30 min preincubation at 37° C.), 0.61 nM; in assay [3] (0.5 mM tyramine) it was 1900 nM.
With `NC/C(=C\F)Cn1ncn(-c2cccc(-c3ccc(N4CCOCC4)nc3)c2)c1=O` [Example 86, 2-[(2E)-2-(aminomethyl)-3-fluoroprop-2-en-1-yl]-4-{3-[6-(morpholin-4-yl)pyridin-3-yl]phenyl}-2,4-dihydro-3H-1,2,4-triazol-3-one hydrochloride], the IC50 in assay [1] (1 mM benzylamine) was 1230 nM; in assay [2] (setting [4]), less than 100 nM; on recombinant human VAP-1 (30 min preincubation at 37° C.), 0.62 nM; in assay [3] (0.5 mM tyramine), more than 100000 nM.

For the origin of these results see patent US11492335B2, “Aryl or heteroaryl triazolone derivatives or salts thereof, or pharmaceutical compositions comprising the same” (YUHAN CORPORATION, priority 2018, dated 2022).
